# Legend:
# Assay type in all cases: cell-based, human
# [1] = test system: SH-SY5Y cybrid cells (control and AD); experiment: Mitochondrial permeability transition (MPT) assay using DASPMI fluorescence loss rate after ionomycin induction
# Procedure: The fluorescent mitochondria-selective dye 2-,4-dimethylaminostyryl-N-methylpyridinium (DASPMI, Molecular Probes, Inc., Eugene, Oreg.) is dissolved in Hank's balanced salt solution (HBSS; Life Technologies, Rockville, Md.) at 1 mM and diluted to 25 μM in warm HBSS. […]
# Fluorescence of each microculture in the 96-well plate is quantified immediately using a Molecular Devices fmax fluorimetric plate reader (Molecular Devices Corp., Sunnyvale, Calif.; excitation wavelength=485 nm; emission wavelength=590 nm) and zero-time (t0) fluorescence is recorded. […] Fluorescence decay of DASPMI-loaded, ionomycin induced cells is monitored as a function of time from 0-500 seconds following addition of ionomycin. The maximum negative slope (V-max) is calculated from a subset of the data using analysis software provided by the fluorimetric plate reader manufacturer. In addition, the initial and final signal intensities are determined and the effects of candidate agents that may affect MPT on the rate of signal decay are quantified.
# The method described in Example 1 was employed to monitor MPT induced by the calcium ionophore ionomycin and inhibition thereof by cyclosporin. […] Fluorescence detection and monitoring of fluorescence decay as a rate loss function were as described in Example 1. […]
# [2] = test system: SH-SY5Y neuroblastoma cells; experiment: Apoptosis morphology (membrane blebbing) by light microscopy after ionomycin induced MPT; details: four hours
# Procedure: Control SH-SY5Y cells, and control (normal) and AD cybrids produced from SH-SY5Y cells were as described above, and were induced to undergo MPT as described in Example 1. Some cultured cells were pretreated with 1-phenylbiguanide (I) as described in Example 8. Briefly, SH-SY5Y neuroblastoma cells (1×10^5 cells) were rinsed with one volume 1×PBS, and then treated with 10 μM ionomycin (Calbiochem, San Diego, Calif.) in DMEM supplemented with 10% fetal calf serum (FCS) (Gibco, Life Technologies, Grand Island, N.Y.) for 10 minutes, followed by two washes with DMEM (10% FCS). […]
# The results using parental SH-SY5Y cells are illustrated in FIG. 10.
# [3] = test system: caspase-3 activity in AD cybrids or MixCon cybrids; experiment: Caspase-3 activation (DEVD-AMC cleavage) following ionomycin induced MPT; details: FIG. 11
# Procedure: In 96-well microculture plates, cultured human cybrid neuroblastoma SH-SY5Y cells constructed using mitochondria from an individual known to have AD, or from a normal control subject, were cultured in HBSS followed by the addition of atractyloside (as described in Example 5) or ionomycin (as described in Example 1). Control cultures, to which neither atractyloside nor ionomycin were added, were prepared in parallel. Membrane potential was monitored from about 15 minutes (which was, in most cases, sufficient for purposes of the assay) to about 45 to 60 minutes, wherein “about” indicates ±10%.
# Caspase-3 activity was assessed by diluting the fluorogenic peptide substrate acetyl-Asp-Glu-Val-Asp (SEQ ID NO:2) conjugated to AMC (7-amino-4-methylcoumarin; the synthetic peptide is referred to as DEVD-AMC; CalBiochem-Novabiochem Corp., San Diego, Calif.; see Walker et al., 1994 Cell 78:343, and Thornberry et al., 1992 Nature 356:768) from a DMSO stock solution into culture media to a final concentration of 20 μM for uptake by cells. Substrate cleavage liberating the AMC fluorophore was measured continuously using a Cytofluor fluorimetric plate reader (model #2350, Millipore Corp., Bedford, Mass.; excitation wavelength=435 nm; emission wavelength=460 nm). Data are presented as ΔRFU (relative fluorescence units). […]
smiles,measurement,setting,value
N.N.N.N.N.N.N.N.N.N.N.N.N.N.[Cl-].[Cl-].[Cl-].[Cl-].[Cl-].[Cl-].[O-2].[O-2].[Ru+3].[Ru+3].[Ru+4] [ruthenium red],DASPMI fluorescence loss rate,"[1]; 10 nM ruthenium red for 10 minutes prior to MPT induction with ionomycin (5 μM), control and AD cybrid cell lines, FIG. 3",significantly greater in cybrid cells that have not been treated with ruthenium red
N=C(N)NC(=N)Nc1ccccc1 [1-phenylbiguanide],rate of loss of mitochondrial membrane potential (DASPMI loss rate),"[1]; 2 mM 1-phenylbiguanide for 20 min prior to MPT induction with 1 μM ionomycin, two AD and one control cybrid cell lines, p<0.001, FIG. 9",decreased the rate of loss of mitochondrial membrane potential
same,"apoptosis morphology, % of cells","[2]; parental SH-SY5Y cells pretreated with (I), then 10 μM ionomycin, FIG. 10C",10-15%
same,induction of caspase-3 activity after ionomycin induced MPT,"[3]; pretreated with (I) as in Example 8 (2 mM, 20 min), MPT induced by 25 μM ionomycin",inhibited
C[C@H](CCC(=O)O)C[C@H](C)C[C@H](C)C(=O)/C=C(\O)[C@H](C)C[C@H](C)C/C=C/[C@@H](C)[C@@H](O)[C@@H](C)[C@@H](O)C[C@@H]1CC[C@@](C)([C@H]2CC[C@@](C)([C@@H](C)O)O2)O1 [ionomycin],cells exhibiting membrane blebbing,"[2]; parental SH-SY5Y cells, 10 μM ionomycin, untreated cells <5%, FIG. 10B",approximately 80%
same,caspase-3 activity induced by MPT induction,[3]; 25 μM ionomycin,induces significant caspase-3 activity

# Source: patent US20030044776A1, “COMPOSITIONS AND METHODS FOR IDENTIFYING AGENTS THAT ALTER MITOCHONDRIAL PERMEABILITY TRANSITION PORES” (priority 1998, published 2003)
